This is an account of results in PMC7534389, “Thiazolidin-2-cyanamides derivatives as novel potent Escherichia coli β-glucuronidase inhibitors and their structure–inhibitory activity relationships” (Journal of Enzyme Inhibition and Medicinal Chemistry, 2020).

Structures are written as SMILES. Several values for one entry are separate records, joined by “and”; a condition that tells them apart may be missing. Equal entries are not always repeated. Where two headings read alike, the source gives them in different places.

One data set has as its system EcGUS. The conditions noted are these: cited from earlier work.
Data set [1] concerns the target T1, Escherichia coli β-glucuronidase (EcGUS) (Escherichia coli, UniProt P05804).
T1 construct: inferred from the pET28a vector and Ni-NTA purification; made in house; host or cells: E. coli BL21 (DE3)
Put plainly: EcGUS-mediated PNPG hydrolysis inhibition assay (screening at 10 µM and IC50). In kind it is biochemical. As for the experimental part: EcGUS was prepared according to our previous report. The recombinant strain were incubated in 200 mL of LB broth (Tryptone, 10 g/L; yeast extract, 5 g/L; NaCl, 10 g/L; pH 7.0) containing 1% kanamycin at 220 rpm and 37 °C until OD600 reached 0.5–0.6. Afterward, IPTG (final concentration, 0.5 mM) was added and the culture was incubated at 220 rpm and 16 °C for 16 h to induce the expression of β-glucuronidase. The cells were collected by centrifugation and suspended in PBS buffer (pH 7.4), and then applied to extract the enzyme by sonication. Finally, pure EcGUS was obtained from the cell-free extracts through a Ni-NTA column (EMD Millipore Corp., MA, USA). Protein concentration was determined using the BCA Protein Assay Kit (Beyotime, Shanghai, China) according to the manufacturer’s instruction, and its purity was determined by SDS-PAGE.
Thirteen thiazolidin-2-cyanamide derivatives were subjected to screening for potent EcGUS inhibitor. The inhibitory effects of these compounds were determined by measuring the PNP formation generated from PNPG by EcGUS. Briefly, the assays were conducted in 96-well flat-bottomed tissue culture plates (Nunc, Denmark) with a total volume of 100 µL which consisted of 10 µL EcGUS (final concentration, 2 µg/mL), 70 µL PBS buffer (pH 7.4), 10 µL test compound or DSL (final concentration, 10 µM) and 10 µL PNPG (final concentration, 250 µM). DSL was used as a positive control, and 1%DMSO was used as blank control. All reactions were performed in triplicate and the produced PNP was monitored by measuring absorbance at 405 nm in a plate reader (SpectraMax Plus384, Molecular Devices, CA, USA) after incubating at 37 °C for 30 min. The PNP concentration was determined from a standard curve (0, 10, 20, 40, 60, 80, 100, 120 µM PNP) in PBS buffer (pH 7.4). Relative activity was defined as a percent of PNP formation in the presence of test compound within 30 min compared with the blank control group.
IC50 values of the 13 thiazolidin-2-cyanamide derivatives against EcGUS were investigated using similar assays as described in Section 2.4. The reaction conditions are as follows: 10 µL pure enzyme (final concentration, 2 µg/mL), 70 µL PBS buffer (pH 7.4), 10 µL test compound or DSL (final concentration, 0.001–5000 µM) and 10 µL PNPG (final concentration, 250 µM) incubating at 37 °C for 30 min. The IC50 values were calculated by plotting the concentration–response curve using GraphPad Prism 6.0 (GraphPad Software, La Jolla, CA).
(§1) All experiments were carried out in triplicate and repeated at least two times. All data were expressed as mean ± standard deviation (SD). The IC50 values were defined as the concentration of inhibitor that is required for 50% inhibition and evaluated by nonlinear regression using GraphPad Prism 6.0 software (GraphPad Software, La Jolla, CA).

For data set [2], the target named is T1, Escherichia coli β-glucuronidase (EcGUS). As to the kind of experiment: Inhibition kinetic analysis (Lineweaver–Burk plots, Ki) against EcGUS. In kind it is biochemical. As to conditions: for Ki: PNPG 0.2-1.0 mM, nonlinear regression; for Inhibition type: from intersection point in Lineweaver–Burk plots. How it is done: To further characterise the inhibition behaviour of discovered inhibitors, multiple concentrations of compounds (0.5–12 µM) or DSL (50–100 µM) and PNPG (0.2, 0.3, 0.5, and 1.0 mM) were applied to determine the corresponding reaction rates. The inhibition type was evaluated through determining the intersection point in Lineweaver–Burk plots, and the Ki values were calculated by nonlinear regression of different inhibition types using the GraphPad Prism 6.0 (GraphPad Software, La Jolla, CA).
as §1

The mark [3] stands for this setting: 10 µM compound, PNPG 250 µM, EcGUS 2 µg/mL, PBS pH 7.4, 37 °C, 30 min, read-out: Inhibition rate at 10 μM.
The mark [4] stands for this setting: PNPG 250 µM, EcGUS 2 µg/mL, PBS pH 7.4, 37 °C, 30 min.
Where [5] appears, read: pH 7.4, read-out: Inhibition rate at 10 μM.

T1 sequence (P05804 whole entry): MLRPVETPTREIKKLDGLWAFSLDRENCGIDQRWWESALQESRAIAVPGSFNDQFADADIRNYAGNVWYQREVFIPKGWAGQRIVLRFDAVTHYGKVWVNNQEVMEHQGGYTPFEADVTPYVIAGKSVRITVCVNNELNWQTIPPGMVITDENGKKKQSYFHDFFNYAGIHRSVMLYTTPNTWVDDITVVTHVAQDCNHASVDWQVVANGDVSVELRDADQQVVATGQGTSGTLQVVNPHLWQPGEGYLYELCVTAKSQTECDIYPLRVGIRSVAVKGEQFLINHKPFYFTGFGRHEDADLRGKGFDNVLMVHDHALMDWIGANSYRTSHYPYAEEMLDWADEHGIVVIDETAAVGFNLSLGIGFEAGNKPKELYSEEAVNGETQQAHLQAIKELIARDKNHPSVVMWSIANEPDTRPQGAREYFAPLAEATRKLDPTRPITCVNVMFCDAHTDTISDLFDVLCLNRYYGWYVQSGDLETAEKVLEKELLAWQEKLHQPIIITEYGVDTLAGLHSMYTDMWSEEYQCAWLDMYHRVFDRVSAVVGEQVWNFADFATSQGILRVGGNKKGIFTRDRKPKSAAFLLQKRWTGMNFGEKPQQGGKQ

With `O=c1cc(-c2ccc(O)cc2)oc2cc(O)c(O)c(O)c12` [Scutellarein], the “Inhibition type against EcGUS” value with EcGUS is on record as “potent competitive inhibitors”.
Compound `N#C/N=C1\SCCN1C(=O)c1ccc(-c2ccccc2F)o1` [Compound 4] gave a melting point of 137 to 138 °C. Also, the inhibition at 10 µM in data set [1] (setting [3]) stood at 61.6 ± 0.6%. In data set [1] (setting [4]), this compound registered an IC50 of 11.9 ± 1.5 µM.
The matching figures for `COc1ccc(-c2ccc(C(=O)N3CCS/C3=N\C#N)o2)cc1` [Compound 12]: 151 to 152 °C, 49.6 ± 0.6% and 18.5 ± 2.1 µM.
The compound `N#C/N=C1\SCCN1C(=O)c1ccc(-c2cccc(Cl)c2)o1` [Compound 2] displayed a melting point of 166 to 167 °C. Moreover, in data set [2], the inhibition constant Ki is < 3.5 µM and 0.7 µM; the Inhibition type result is “competitive EcGUS inhibitors”. The inhibition at 10 µM in data set [1] (setting [3]) was found to be 95.2 ± 0.3%. In data set [1] (setting [4]), this compound yielded an IC50 of 1.2 ± 0.2 µM.
Compound `Cc1ccc(-c2ccc(C(=O)N3CCS/C3=N\C#N)o2)cc1` [Compound 11] came in with a melting point of 151 to 152 °C. Moreover, in data set [1] (setting [3]), the inhibition at 10 µM amounted to 33.5 ± 2.5%. This compound showed a concentration for half-maximal inhibition (IC50) in data set [1] (setting [4]) of 22.3 ± 2.6 µM.
`N#C/N=C1\SCCN1C(=O)c1ccc(-c2ccccc2Cl)o1` [Compound 1] yielded a melting point of 101 to 102 °C. For the same compound, in data set [2], the Ki was < 3.5 µM and 3.5 µM; the Inhibition type result is given as “competitive EcGUS inhibitors”. Also, the inhibition at 10 µM in data set [1] (setting [3]) amounted to 77.2 ± 0.6%. In data set [1] (setting [4]), this compound returned an IC50 of 5.7 ± 0.6 µM.
For `N#C/N=C1\SCCN1C(=O)c1ccc(-c2c(F)cccc2F)o1` [Compound 7], the melting point fell in the range of 136 to 137 °C. Also, the inhibition at 10 µM in data set [1] (setting [3]) came to 64.1 ± 1.2%. Besides, in data set [1] (setting [4]), the IC50 came out at 9.3 ± 1.1 µM.
`N#C/N=C1\SCCN1C(=O)c1ccc(-c2ccccc2)o1` [Compound 13] returned a melting point of 143 to 144 °C. The inhibition at 10 µM in data set [1] (setting [3]) was determined as 61.8 ± 1.3%. The same compound yielded an IC50 in data set [1] (setting [4]) of 10.7 ± 0.5 µM.
In turn, `N#C/N=C1\SCCN1C(=O)c1ccc(-c2ccc(Cl)cc2)o1` [Compound 3] gave a melting point of 149 to 150 °C. For the same compound, in data set [2], the Ki was < 3.5 µM and 2 µM; the Inhibition type entry was “competitive EcGUS inhibitors”. Moreover, the inhibition at 10 µM in data set [1] (setting [3]) came out at 80.2 ± 1.8%. Besides, the midpoint of inhibition in data set [1] (setting [4]), the IC50, lay at 4.7 ± 0.6 µM.
With `CCOC(=O)/C=C/c1ccc(O)c(O)c1` [caffeic acid ethyl ester], the “Inhibition type against EcGUS” value with EcGUS is recorded as “potent competitive inhibitors”.
In turn, `N#C/N=C1\SCCN1C(=O)c1ccc(-c2ccc(F)cc2)o1` [Compound 5] registered a melting point of 129 to 130 °C. In addition, the inhibition at 10 µM in data set [1] (setting [3]) is 66.5 ± 1.2%. The same compound registered an IC50 in data set [1] (setting [4]) of 7.3 ± 0.7 µM.
In the case of `CC(C)=CC[C@]12Oc3cc(O)c([C@H]4C=C(C)C[C@H](c5ccc(O)cc5O)[C@H]4C(=O)c4ccc(O)cc4O)c(O)c3C(=O)[C@@]1(O)Oc1cc(O)ccc12` [sanggenon C], the “Inhibition type against EcGUS” value in the data set with EcGUS is reported as “mixed-type inhibition”.
With `CC(C)=CCc1c(-c2ccc(O)cc2O)oc2c([C@H]3C=C(C)C[C@@H](c4ccc(O)cc4O)[C@@H]3C(=O)c3ccc(O)cc3O)c(O)cc(O)c2c1=O` [kuwanon G], in the data set with EcGUS, the “Inhibition type against EcGUS” value is listed as “mixed-type inhibition”.
In turn, `N#C/N=C1\SCCN1C(=O)c1ccc(-c2ccc([N+](=O)[O-])cc2)o1` [Compound 9] came in with a melting point above 290 °C. In data set [1] (setting [3]), the inhibition at 10 µM was 40.3 ± 3.2%. Besides, the IC50 in data set [1] (setting [4]) was found to be 22.2 ± 2.5 µM.
Compound `N#C/N=C1\SCCN1C(=O)c1ccc(-c2ccc(Br)cc2)o1` [Compound 10] registered a melting point of 169 to 170 °C. Further, the inhibition at 10 µM in data set [1] (setting [3]) came out at 68.7 ± 1.8%. Half-maximal inhibition in data set [1] (setting [4]) (IC50) required 10.8 ± 0.2 µM.
In the case of `O=C(O)[C@@H](O)[C@H]1OC(=O)[C@H](O)[C@H]1O` [D-Saccharic acid 1,4-lactone, D-saccharic acid-1,4-lactone, reference compound], in data set [2], the Ki is 30.9 ± 2.2 µM and the Inhibition type entry is listed as “mixed inhibitors”. The same compound yielded an IC50 in data set [1] (setting [4]) of 67.3 ± 0.6 µM. Also, the inhibition at 10 µM in data set [1] (setting [5]) came out at 11.6 ± 0.6%.
On to `N#C/N=C1\SCCN1C(=O)c1ccc(-c2ccc(F)cc2F)o1` [Compound 6], for which the melting point is 140 to 141 °C. Also, the inhibition at 10 µM in data set [1] (setting [3]) was 43.9 ± 0.7%. Half-maximal inhibition in data set [1] (setting [4]) (IC50) required 23.1 ± 1.5 µM.
`N#C/N=C1\SCCN1C(=O)c1ccc(-c2ccccc2[N+](=O)[O-])o1` [Compound 8] showed a melting point of 135 to 136 °C. This compound also came in with an IC50 in data set [1] (setting [4]) below 10 µM. In addition, in data set [1] (setting [5]), the inhibition at 10 µM worked out at 31.4 ± 1.8%.
Take `Clc1ccc2c(c1)C(N1CCNCC1)=Nc1ccccc1O2` [amoxapine]: the “Inhibition type against EcGUS” value with EcGUS is “uncompetitive inhibition”.
